According to patent US11078207B2, “Substituted pyrrolo[2,3-d]pyrimidines as HER2 inhibitors” (TAIHO PHARMACEUTICAL CO., LTD., priority 2019, dated 2021):
Where two headings read alike, the source gives them in different places.

Experiments:
[1] = molecular target: T1, HER2 (Homo sapiens, UniProt P04626); assay: Inhibitory effect (in vitro) on HER2 phosphorylation activity; format: biochemical; details: recombinant human HER2, ATP 5 μM, 25° C. 30 minutes
T1 construct: purchased Carna Biosciences, Inc
Excerpt: In order to determine conditions for a method of measuring the in vitro inhibitory activity of a compound against HER2 phosphorylation activity, based on the report regarding a HER2 kinase reaction using, as a substrate, a peptide having the same sequence (5-FAM-[…]-CONH2) as that of ProfilerPro Peptide 22 of PerkinElmer (Xie H et al., PLoS One. 2011; 6(7): e21487), ProfilerPro Peptide 22 was used as a substrate. A purified recombinant human HER2 protein used in the present test was purchased from Carna Biosciences, Inc. Upon the measurement of the inhibitory activity of the compound, first, the compound of the present invention was diluted stepwise with dimethyl sulfoxide (DMSO). […] To the reaction solution, EDTA was added to a final concentration of 30 mM, so as to terminate the reaction. Finally, using LabChip (registered trademark) EZ Reader II (PerkinElmer), an unphosphorylated substrate peptide (S) and a phosphorylated peptide (P) were separated and detected according to microchannel capillary electrophoresis.

[2] = system: SK-BR-3 cells; assay: Growth inhibitory activity against HER2 expressing cell line SK-BR-3; format: cell-based; details: Homo sapiens, SK-BR-3, 72 h; 3 days, CellTiter-Glo 2.0
Procedure: SK-BR-3 cells as a HER2 overexpressing human breast cancer cell line were suspended in a McCoy's 5a medium (manufactured by Life Technologies) supplemented with 10% fetal bovine serum. The cell suspension was seeded in each well of a 384-well flat-bottom microplate, and was then cultured in a 5% carbon dioxide gas-containing culture vessel at 37° C. for 1 day. Thereafter, the compound of the present invention was dissolved in DMSO, and the compound was diluted to 500 times the final concentration in DMSO. The compound in the DMSO solution was diluted with DMSO solution or the medium used in the suspension of the cells, and the obtained solution was then added to each well of the culture plate so that the final concentration of DMSO was 0.2%. The obtained mixture was further cultured in the 5% carbon dioxide gas-containing culture vessel at 37° C. for 3 days. After completion of the culture for 3 days in the presence of the compound, the cells were counted using CellTiter-Glo 2.0 (manufactured by Promega), and the growth inhibition percentage was then calculated according to the following equation. […] Growth inhibitory percentage (%)=(C−T)/(C)×100 T: Emission intensity from the well to which the test compound was added C: Emission intensity from the well to which the test compound was not added

[3] = molecular target: Ba/F3-HER2insYVMA cells (Homo sapiens, UniProt P04626, DUP772-775, cells depend on it); assay: Growth inhibitory activity against HER2 exon 20 insertion mutant expressing cell line; format: cell-based, mouse; details: 3 days, CellTiter-Glo 2.0, read-out: HER2ex20insYVMA cell growth inhibitory activity IC50 value
Procedure: Growth inhibitory activity against the HER2 exon 20 insertion mutant was measured using Ba/F3 cells that were a mouse B lymphocyte precursor cell line, into which a human HER2 exon 20 insertion mutant gene had been introduced. The Ba/F3 cells were maintained in an RPMI-1640 medium (Thermo Fisher Scientific) supplemented with 10% fetal bovine serum (FBS), 100 U/mL penicillin, 100 μg/mL streptomycin (Thermo Fisher Scientific) and 1 ng/mL mouse interleukin-3 (mIL-3) (CST).
Upon evaluation of cell growth inhibitory activity, the Ba/F3-HER2insYVMA cells were suspended in an RPMI-1640 medium supplemented with 10% FBS, 100 U/mL penicillin, and 100 μg/mL streptomycin. The cell suspension was seeded in each well of a 96-well flat-bottom microplate, and was then cultured in a 5% carbon dioxide gas-containing culture vessel at 37° C. for 1 day. The compound of the present invention was dissolved in DMSO, and was then diluted with DMSO or the medium used in the suspension of the cells. The obtained solution was then added to each well of the culture plate, so that the final concentration of DMSO became 0.2%. The obtained mixture was further cultured in the 5% carbon dioxide gas-containing culture vessel at 37° C. for 3 days. After completion of the culture for 3 days in the presence of the compound, the cells were counted using CellTiter-Glo 2.0 (manufactured by Promega), and the growth inhibition percentage was then calculated according to the following equation. […] Growth inhibitory percentage (%)=(C−T)/(C)×100 T: Emission intensity from the well to which the test compound was added C: Emission intensity from the well to which the test compound was not added

[4] = system: NCI-N87 cells; assay: Growth inhibitory activity against HER2 expressing cell line NCI-N87; format: cell-based; details: Homo sapiens, NCI-N87, 72 h; 3 days, CellTiter-Glo 2.0
Procedure: NCI-N87 cells as a HER2 overexpressing human stomach cancer cell line (American Type Culture Collection, Cat No. ATCC (registered trademark) CRL-5822) were suspended in an RPMI640 medium (Wako Pure Chemical Industries, Ltd.) supplemented with 10% fetal bovine serum. Subsequently, the cell suspension was seeded in each well of a 96-well flat-bottom microplate, and was then cultured in a 5% carbon dioxide gas-containing culture vessel at 37° C. for 1 day. Thereafter, the compound of the present invention was dissolved in DMSO, and the compound was diluted to 1000 times the final concentration in DMSO. The compound in the DMSO solution was diluted with the medium used in the suspension of the cells, and the obtained solution was then added to each well of the culture plate, so that the final concentration of DMSO became 0.1%. Regarding a control well, DMSO was diluted with the medium used in the suspension of the cells, and the obtained solution was then added to each well of the culture plate, so that the final concentration of DMSO became 0.1%. After addition of a drug solution, the obtained mixture was further cultured in the 5% carbon dioxide gas-containing culture vessel at 37° C. for 3 days. After completion of the culture for 3 days in the presence of the compound, the cells were counted using CellTiter-Glo 2.0 (manufactured by Promega) in accordance with the protocols recommended by Promega. The growth inhibition percentage was calculated according to the following equation. […] Growth inhibitory percentage (%)=(C−T)/(C)×100 T: Emission intensity from the well to which the test compound was added C: Emission intensity from the well to which the test compound was not added

[5] = Evaluation of oral absorbability; format: in vivo, BALB/cA mice; details: mouse; plasma, oral 50 mg/kg/day, BALB/cA mice
Procedure: The compound of the present invention was suspended or dissolved in 0.5% HPMC aqueous solution and 0.1 N hydrochloric acid, and the obtained suspension or solution was orally administered to BALB/cA mice (CLEA Japan, Inc.) at a dose of 50 mg/kg/day. At 0.5, 1, 2, 4 and 6 hours after completion of the oral administration, blood was collected from the facial vein over time, so as to obtain plasma. The concentration of the compound in the obtained plasma was measured by LC-MS/MS, and the oral absorbability of the present compound was evaluated.

[6] = Evaluation of brain penetration properties; format: in vivo, BALB/cA mice; details: mouse, 0.5 hours after oral 50 mg/kg/day, BALB/cA mice; for Kp at 0.5 h: read-out: Kp value (Compound concentration in brain/plasma)
[7] = brain, read-out: Compound concentration in brain
[8] = plasma, read-out: Compound concentration in plasma

T1 sequence (P04626 23-1255): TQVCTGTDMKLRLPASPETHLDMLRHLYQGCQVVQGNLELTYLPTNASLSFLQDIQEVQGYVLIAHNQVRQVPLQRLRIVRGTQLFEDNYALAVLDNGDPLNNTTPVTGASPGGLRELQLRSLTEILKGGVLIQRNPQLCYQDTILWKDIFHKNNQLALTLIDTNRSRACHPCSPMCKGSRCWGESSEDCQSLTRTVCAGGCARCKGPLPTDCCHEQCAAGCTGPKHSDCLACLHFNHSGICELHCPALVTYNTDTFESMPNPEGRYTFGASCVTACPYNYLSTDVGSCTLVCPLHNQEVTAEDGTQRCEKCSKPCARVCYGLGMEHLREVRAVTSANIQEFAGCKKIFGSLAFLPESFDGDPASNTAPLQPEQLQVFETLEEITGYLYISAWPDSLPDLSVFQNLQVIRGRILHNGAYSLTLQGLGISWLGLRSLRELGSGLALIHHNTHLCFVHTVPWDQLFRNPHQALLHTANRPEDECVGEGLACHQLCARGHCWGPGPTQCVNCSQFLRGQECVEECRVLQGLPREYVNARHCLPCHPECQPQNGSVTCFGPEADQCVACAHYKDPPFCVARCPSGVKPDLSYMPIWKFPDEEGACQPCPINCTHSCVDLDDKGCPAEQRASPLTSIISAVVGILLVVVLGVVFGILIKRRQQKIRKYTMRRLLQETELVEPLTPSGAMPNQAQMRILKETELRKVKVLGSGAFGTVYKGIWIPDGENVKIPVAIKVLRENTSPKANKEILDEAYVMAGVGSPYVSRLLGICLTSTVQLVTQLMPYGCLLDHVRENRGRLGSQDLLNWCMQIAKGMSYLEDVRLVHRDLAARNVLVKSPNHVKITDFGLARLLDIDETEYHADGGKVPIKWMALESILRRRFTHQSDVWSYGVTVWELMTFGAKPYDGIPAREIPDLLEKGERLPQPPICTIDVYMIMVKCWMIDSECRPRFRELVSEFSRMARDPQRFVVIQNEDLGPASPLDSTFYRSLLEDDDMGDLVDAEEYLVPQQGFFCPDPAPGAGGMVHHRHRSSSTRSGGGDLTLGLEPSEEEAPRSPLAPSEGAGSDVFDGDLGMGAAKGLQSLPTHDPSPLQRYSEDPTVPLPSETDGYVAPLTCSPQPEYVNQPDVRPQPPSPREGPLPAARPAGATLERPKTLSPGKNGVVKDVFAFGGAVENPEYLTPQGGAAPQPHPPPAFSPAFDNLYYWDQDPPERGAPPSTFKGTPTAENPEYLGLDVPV
Chain of Ba/F3-HER2insYVMA cells (P04626 with tags, fused parts or gaps DUP772-775): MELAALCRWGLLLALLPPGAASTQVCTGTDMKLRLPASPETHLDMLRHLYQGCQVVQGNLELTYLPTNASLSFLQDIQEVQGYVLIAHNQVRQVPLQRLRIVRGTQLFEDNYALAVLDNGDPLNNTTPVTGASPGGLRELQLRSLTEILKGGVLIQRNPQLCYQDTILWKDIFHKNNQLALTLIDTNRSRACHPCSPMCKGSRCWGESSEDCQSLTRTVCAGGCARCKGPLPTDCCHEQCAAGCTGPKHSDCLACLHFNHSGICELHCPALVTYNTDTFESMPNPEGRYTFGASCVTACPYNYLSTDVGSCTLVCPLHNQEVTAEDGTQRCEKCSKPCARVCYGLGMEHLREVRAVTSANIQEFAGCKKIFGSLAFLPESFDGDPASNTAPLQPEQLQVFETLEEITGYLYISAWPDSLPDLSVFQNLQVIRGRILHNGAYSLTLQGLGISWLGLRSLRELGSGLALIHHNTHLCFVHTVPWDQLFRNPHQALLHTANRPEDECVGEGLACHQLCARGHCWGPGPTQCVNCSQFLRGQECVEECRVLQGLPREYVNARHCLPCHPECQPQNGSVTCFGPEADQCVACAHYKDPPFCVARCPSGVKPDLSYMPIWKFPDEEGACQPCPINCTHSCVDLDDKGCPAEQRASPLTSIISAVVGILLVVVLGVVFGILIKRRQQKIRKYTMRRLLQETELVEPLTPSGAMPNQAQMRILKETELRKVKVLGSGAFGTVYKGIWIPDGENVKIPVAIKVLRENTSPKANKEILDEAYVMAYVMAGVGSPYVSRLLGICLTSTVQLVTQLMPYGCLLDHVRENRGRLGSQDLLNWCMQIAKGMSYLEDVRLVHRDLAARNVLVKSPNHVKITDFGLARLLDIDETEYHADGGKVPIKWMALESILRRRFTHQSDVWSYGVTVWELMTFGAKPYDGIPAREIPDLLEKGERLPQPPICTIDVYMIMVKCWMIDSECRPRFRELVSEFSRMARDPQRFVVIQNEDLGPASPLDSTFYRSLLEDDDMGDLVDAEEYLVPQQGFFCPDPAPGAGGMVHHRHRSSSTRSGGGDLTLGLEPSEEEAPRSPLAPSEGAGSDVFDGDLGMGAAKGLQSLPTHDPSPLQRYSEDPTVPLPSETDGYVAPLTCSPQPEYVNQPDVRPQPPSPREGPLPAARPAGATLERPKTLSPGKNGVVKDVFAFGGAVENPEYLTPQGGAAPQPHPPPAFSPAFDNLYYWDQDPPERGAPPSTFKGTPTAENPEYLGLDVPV

| Compound | IC50 [1] [nM] | IC50 [2] [nM] | GI50 [3] [nM] | IC50 [4] [nM] | AUC(0-t) [5] [µM·h] | concentration at 0.5 h [6, 7] [µM] | Kp at 0.5 h ([6]; brain) | concentration at 0.5 h [6, 8] [µM] |
| --- | --- | --- | --- | --- | --- | --- | --- | --- |
| C=CC(=O)N1C[C@H](n2c(C#CC)c(C(=O)N[C@H](C)c3cc(F)cc(F)c3)c3c(N)ncnc32)C[C@@H]1C [Example 1, 7-(R)-((3R,5S)-1-acryloyl-5-methylpyrrolidin-3-yl)-4-amino-N—((R)-1-(3,5-difluorophenyl)ethyl)-6-(prop-1-yn-1-yl)-7H-pyrrolo[2,3-d]pyrimidine-5-carboxamide] | 2.7 | 9.3 | 17 | 10.7 | 50 | 1.4 | 0.15 | 9.1 |
| C=CC(=O)N1C[C@H](n2c(C#CC)c(C(=O)N[C@H](C)c3ccccc3)c3c(N)ncnc32)C[C@@H]1C [Example 2, 7-((3R,5S)-1-acryloyl-5-methylpyrrolidin-3-yl)-4-amino-N—((R)-1-phenylethyl)-6-(prop-1-yn-1-yl)-7H-pyrrolo[2,3-d]pyrimidine-5-carboxamide] | 2.5 | 2.8 | 12 | 3 | 15 | 1.8 | 0.27 | 6.6 |
| C=CC(=O)N1C[C@H](n2c(C#CC)c(C(=O)NC(C)(C)c3ccccc3)c3c(N)ncnc32)C[C@@H]1C [Example 3, 7-((3R,5S)-1-acryloyl-5-methylpyrrolidin-3-yl)-4-amino-N-(2-phenylpropan-2-yl)-6-(prop-1-yn-1-yl)-7H-pyrrolo[2,3-d]pyrimidine-5-carboxamide] | 5.8 | 4.5 | 25 | 4.7 | 24 | 1.4 | 0.13 | 11 |
| C=CC(=O)N1C[C@H](n2c(C#CC)c(C(=O)N[C@H](CC)c3ccccc3)c3c(N)ncnc32)C[C@@H]1C [Example 4, 7-((3R,5S)-1-acryloyl-5-methylpyrrolidin-3-yl)-4-amino-N—((R)-1-phenylpropyl)-6-(prop-1-yn-1-yl)-7H-pyrrolo[2,3-d]pyrimidine-5-carboxamide] | 3.9 | 5.6 | 20 | 5.6 | 12 | 2.8 | 0.34 | 8.3 |
| C=CC(=O)N1C[C@H](n2c(C#CC)c(C(=O)NC(C)(C)c3ccccc3F)c3c(N)ncnc32)C[C@@H]1C [Example 5, 7-((3R,5S)-1-acryloyl-5-methylpyrrolidin-3-yl)-4-amino-N-(2-(2-fluorophenyl)propan-2-yl)-6-(prop-1-yn-1-yl)-7H-pyrrolo[2,3-d]pyrimidine-5-carboxamide] | 7.7 | 4 | 14 | 7 | 20 | 2.2 | 0.15 | 15 |
| C=CC(=O)N1C[C@H](n2c(C#CC)c(C(=O)N[C@H](C)c3cccc(Cl)c3)c3c(N)ncnc32)C[C@@H]1C [Example 6, 7-((3R,5S)-1-acryloyl-5-methylpyrrolidin-3-yl)-4-amino-N—((R)-1-(3-chlorophenyl)ethyl)-6-(prop-1-yn-1-yl)-7H-pyrrolo[2,3-d]pyrimidine-5-carboxamide] | 2.8 | 10 | 28 | 8.5 | 17 | 1.3 | 0.17 | 7.5 |
| C=CC(=O)N1C[C@H](n2c(C#CC)c(C(=O)N[C@@H](c3ccccc3)C(F)(F)F)c3c(N)ncnc32)C[C@@H]1C [Example 8, 7-((3R,5S)-1-acryloyl-5-methylpyrrolidin-3-yl)-4-amino-6-(prop-1-yn-1-yl)-N—((S)-2,2,2-trifluoro-1-phenylethyl)-7H-pyrrolo[2,3-d]pyrimidine-5-carboxamide] | 10 | 14 | 26 | 9.7 | 15 | 3.3 | 0.33 | 9.9 |
| C=CC(=O)N1C[C@H](n2c(C#CC3CC3)c(C(=O)NC(C)(C)c3ccccc3)c3c(N)ncnc32)C[C@@H]1C [Example 9, 7-((3R,5S)-1-acryloyl-5-methylpyrrolidin-3-yl)-4-amino-6-(cyclopropylethynyl)-N-(2-phenylpropan-2-yl)-7H-pyrrolo[2,3-d]pyrimidine-5-carboxamide] | 5.6 | 4.2 | 24 | 6.2 | 51 | 2.4 | 0.18 | 13 |
| C=CC(=O)N1C[C@H](n2c(C#CC3CC3)c(C(=O)N[C@H](C)c3cccc(F)c3F)c3c(N)ncnc32)C[C@@H]1C [Example 10, 7-((3R,5S)-1-acryloyl-5-methylpyrrolidin-3-yl)-4-amino-6-(cyclopropylethynyl)-N—((R)-1-(2,3-difluorophenyl)ethyl)-7H-pyrrolo[2,3-d]pyrimidine-5-carboxamide] | 2.2 | 13 | 29 | 10.5 | 50 | 2.4 | 0.18 | 13 |
